Test results: patent US5807900A, “Method for identifying compounds having increased activity for the repair of skin photodamage” (priority 1995, dated 1998)
Like-named read-outs stand apart in the source and are kept apart here.

Columns and labels:
[1] = tested on: RAR-β; assay: RAR-β transactivation assay (SeAP reporter, COS cells); type: cell-based, human; details: for Transactivation % max (β): relative to all-trans-retinoic acid at same concentration (1,000 nM or 10,000 nM)
Experimental: (§1) Retinoid Receptor Transactivation Assays
(§2) Transactivation assays were performed essentially as described in Apfel et al., supra. For the RAR transcription activation test system, the secreted alkaline phosphatase gene (SeAP) is used as reporter. To have a screening system specific for the transfected receptor, chimeric receptors are used. These contain an estrogen receptor DNA binding domain and therefore recognize the estrogen response element (ERE) which no endogenous RAR's in mammalian cells will recognize.
(§3) The transactivation assay system has been adapted to 96-well plates and most steps are done by a robot. Briefly, on day 1 confluent COS cells are subcultured at an equivalent density onto 96-well plates in DMEM+10% charcoal stripped serum. On day 2 DNA is prepared for transfection by mixing the following: 10 μg vit-TK-SeAP reporter plasmid, 2 μg RAR expression plasmid, 2 μg transfection control plasmid and 30 μl Transfectam (lipopolyamine transfection reagent). Cells are washed twice with serum-free medium and DNA/transfectam mix added. After 1 hour medium is removed and replaced with growth medium containing test retinoids. On day 4 or 5 the culture supernatant is removed, heated to 65° for 5 min to inactivate nonspecific phosphatases, and diluted 1:10 with water. 20 μl samples are added to 100 μl of phosphatase substrate in buffer. After 1 hour at 37° the luminescence is measured in a 96-well luminometer.
(§4) 100 μl of β-galactosidase substrate is added to the adherent cells. Plates are incubated for 1 hour at 37° and the supernatants transferred to separate plates for quantitation of β-galactosidase activity by luminescence measurement. Transactivation results are expressed as the ratio of SeAP/β-galactosidase activity for each well to correct for well-to-well variation in transfection efficiency.
(§5) Data are means of values obtained from two or more individual experiments, rounded off to two significant figures. […] The maximum transactivation activity is determined from the plot where increasing dosage provides little or no additional activity, i.e., where the plot begins to level off. For active retinoids the highest concentration tested is 1000 nM.

[2] = tested on: human RAR-γ; assay: RAR-γ transactivation assay (SeAP reporter, COS cells); type: cell-based; details: for Transactivation % max (γ): relative to all-trans-retinoic acid at same concentration (1,000 nM or 10,000 nM)
Experimental: as §1, §2, §3, §4, §5

[3] = tested on: photodamaged skin; assay: Measurement of photodamage repair in the hairless mouse model; type: in vivo, Hairless mice (female, HRS/J strain); details: for Photodamage repair activity (scale 0 to 4): UVB-irradiated, topical in acetone three times per week, three doses
From the text: The ability of a composition of the invention to induce repair of photodamaged skin may be determined by any conventional means. One conventional method of determining the ability of a topical composition to repair photodamaged skin is the hairless mouse model described by Kligman et al., supra. […] In this model, repair is defined by the appearance of a zone of normalized dermis extending from the epidermis down to the layer of compressed elastin. The extent of repair is reflected by the width of this zone. […] The average width of the repair zone is then calculated by dividing the area by the length of the histological section that was measured.
The width of the repair zone is […] an activity value of 4.
Measurement of Photodamage Repair
Hairless mice (female, HRS/J strain, Jackson Labs, 5-7 weeks old at the start of the experiments) were housed in yellow light and irradiated three times per week with a bank of 8 Westinghouse Sunlamps (FS120) placed about 20 cm above the animals. Daily doses were 0.03 J/cm^2 for two weeks, 0.06 J/cm2 for two weeks and 0.08 J/cm2 thereafter. The radiation dose is controlled by an International Light Model IL844A Phototherapy Exposure Control and a model SEE240 detector.
To effect repair of the dermal damage, the UVB irradiation was discontinued and the animals were divided into groups of approximately eight and treated three times per week with various concentrations of the retinoids dissolved in acetone. Stock solutions are made up freshly every week in subdued light at concentrations such that the dose is delivered in 100 μl volume and applied topically with a plastic pipette to an area of about 10 cm^2 on the back of the animal. All dosing was done under yellow light. A control group treated with acetone alone was included.
Two-cm strips of dorsal skin were taken longitudinally down the center of the irradiated (and treated) area. Elastin fibers were stained with Luna's aldehyde fuchsin and collagen by Van Gieson. In this model, repair is defined by the appearance of a normalized dermis extending from the epidermis down to the layer of compressed elastin. The extent of repair is reflected by the width of this zone. […] Twenty-four fields each of which, at 100X magnification, represents a section of tissue 0.57 mm long, are examined and the area calculated. The results are reported as the average area per field in mm^2. Thus the average width of the repair zone can be obtained by dividing this average area by 0.57 mm. […] All microscopic fields are included in the calculations of average area (or width). Data are analyzed by Student's t-test.
Compounds are tested at three doses and an approximate ED50 calculated.

[4] = tested on: human RAR-α; assay: RAR-α transactivation assay (SeAP reporter, COS cells); type: cell-based; details: for Transactivation % max (α): relative to all-trans-retinoic acid at same concentration (1,000 nM or 10,000 nM)
Experimental: as §1, §2, §3, §4, §5

[5] = target: T1, human RAR-α (Homo sapiens, UniProt P10276); assay: Binding assay for human RAR-α (displacement of 3H-retinoic acid); details: 3H-retinoic acid displacement, mean of two or more experiments
T1 sequence (P10276 201-462 limits assumed): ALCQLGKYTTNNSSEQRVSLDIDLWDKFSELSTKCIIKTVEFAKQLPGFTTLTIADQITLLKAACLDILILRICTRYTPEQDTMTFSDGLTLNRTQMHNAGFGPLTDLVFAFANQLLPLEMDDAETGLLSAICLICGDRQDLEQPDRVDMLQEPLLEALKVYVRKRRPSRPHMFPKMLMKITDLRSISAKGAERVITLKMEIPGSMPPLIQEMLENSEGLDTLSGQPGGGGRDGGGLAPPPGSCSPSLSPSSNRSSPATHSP

[6] = target: T2, human RAR-β (Homo sapiens, UniProt P10826); assay: Binding assay for human RAR-β (displacement of 3H-retinoic acid); details: 3H-retinoic acid displacement, mean of two or more experiments
T2 sequence (P10826 201-455 limits assumed): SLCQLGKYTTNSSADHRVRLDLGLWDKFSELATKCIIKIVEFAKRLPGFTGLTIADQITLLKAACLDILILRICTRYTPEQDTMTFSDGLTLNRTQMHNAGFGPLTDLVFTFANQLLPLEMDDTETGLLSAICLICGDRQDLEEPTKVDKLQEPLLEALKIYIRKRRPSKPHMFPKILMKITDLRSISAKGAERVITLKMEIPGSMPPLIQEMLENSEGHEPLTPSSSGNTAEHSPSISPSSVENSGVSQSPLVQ
Experimental: (§6) Binding Assay for Human RAR-α, RAR-β and RAR-γ
(§7) Binding assays were performed essentially as described in Apfel et al., supra. […] Extracts containing the receptors were used in a competitive binding assay which depends upon the ability of increasing concentrations of a retinoid to displace ^3 H-retinoic acid. In a typical assay, 0.2 to 0.4 picomoles of receptors were incubated in 0.2 ml of 50 mM Tris HCl, pH 7.4, 50 mM NaCl, 2 mM EDTA (binding buffer) containing 0.5% gelatin, 1% DMSO, 2-5 nM ^3 H-retinoic acid and various concentrations of unlabelled retinoids. After 3-5 hours at 22° C., 0.15 ml of chilled charcoal/dextran suspension (5% Norit A/0.5% dextran T-40 in binding buffer) were added for 15 min at 4° C. The tubes were centrifuged at 12,000 x g for 15 minutes and the supernates counted. Binding parameters were calculated from competition curves using the Ligand program.
(§8) Data are means of values obtained from two or more individual experiments, rounded off to two significant figures. […] When binding inhibition at 10,000 nM is less than 50%, >10,000 is indicated.

[7] = target: human RAR-γ; assay: Binding assay for human RAR-γ (displacement of 3H-retinoic acid); details: 3H-retinoic acid displacement, mean of two or more experiments
Experimental: as §6, §7, §8

[8] = tested on: photoaged skin; details: human, topical, literature studies; cited from earlier work
[9] = COS cells, 50% of the compound's own maximum, set to highest concentration tested (usually 1000 nM) if no maximum reached, read-out: Transactivation ED50 (β)
[10] = RAR-γ, COS cells, 50% of the compound's own maximum, set to highest concentration tested (usually 1000 nM) if no maximum reached, read-out: Transactivation ED50 (γ)
[11] = COS cells, 50% of the compound's own maximum, set to highest concentration tested (usually 1000 nM) if no maximum reached, read-out: Transactivation ED50 (α)

Row | Compound | EC50 [1, 9] | Transactivation % max (β) [1] | EC50 [2, 10] | Transactivation % max (γ) ([2]; RAR-γ) | Photodamage repair activity (scale 0 to 4) [3] | EC50 [4, 11] | Transactivation % max (α) [4] | IC50 [5] | IC50 [6] | IC50 [7] | EC50 ([1]; read-out: Transactivation ED50 (β), COS cells, 50% of the compound's own maximum, set to highest concentration tested (usually 1000 nM) if no maximum reached) | EC50 [2] | ED50 for photodamage repair ([3]; μg of test compound applied to 10 cm^2 of skin area, standard retinoid) | Clinical improvement of photodamaged/photoaged skin [8] | EC50 ([4]; read-out: Transactivation ED50 (α), COS cells, 50% of the compound's own maximum, set to highest concentration tested (usually 1000 nM) if no maximum reached)
1 | CCCCCCc1cc2c(cc1/C=C/c1ccc(C(=O)O)cc1)C(C)(C)CCC2(C)C [M] | 88 nM | 62% | 15 nM | 36% | 4 | 1000 nM | 24% | 2200 nM | 2300 nM | 210 nM | – | – | – | – | –
2 | C/C(=C\c1ccccc1)c1ccc2c(c1)C(C)(C)CCC2(C)C [H] | 1000 nM | 10% | 1000 nM | 19% | 0 | 1000 nM | 12% | > 10000 nM | > 10000 nM | > 10000 nM | – | – | – | – | –
3 | CCCCc1cc2c(cc1/C=C/c1ccc(C(=O)O)cc1)C(C)(C)CCC2(C)C [O] | 30 nM | 88% | 6 nM | 105% | 4 | 130 nM | 56% | 1500 nM | 1800 nM | 170 nM | – | – | – | – | –
4 | CCCCCOc1cc2c(cc1/C=C/C=C/C(C)=C/C(=O)O)C(C)(C)CCC2(C)C [Q] | 150 nM | 81% | 29 nM | 96% | 4 | 1000 nM | 45% | > 10000 nM | 9300 nM | 2000 nM | – | – | – | – | –
5 | CC1=C(/C=C/C(C)=C/C=C/C(C)=C\C(=O)O)C(C)(C)CCC1 [B, 13-cis retinoic acid, reference compound] | – | […] | – | […] | 2 (an ED50 of 10 μg) | – | […] | – | – | – | […] | […] | 10 µg | efficacy of isotretinoin in photodamage has been demonstrated | […]
